≈ marks a conversion by molar mass, not a printed value. Where “and” joins values, the source holds several entries; their conditions need not be identical. Equal entries are not always repeated. Where two headings read alike, the source gives them in different places.
Legend:
Haemolysis assay = format: cell-based; conditions: human, whole blood
Procedure: Haemolytic activity was measured as previously described with slight modifications, [45]. Fresh human venal blood was collected from healthy volunteers and pretreated with the anticoagulant sodium citrate. Serial twofold dilutions of each antibiotic, dissolved in 0.9% NaCl solution, were added to fresh human whole blood (50% final, vol:vol) to the final volume of 80 μL and incubated at 37 °C for 3 h on a horizontal shaker at 200 rpm. For negative and positive controls, human whole blood in 0.9% NaCl solution (A blank) and in sdH2O (A water) were used, respectively. After incubation, both test and A blank were mixed with 1 mL 0.9% NaCl solution, or sdH2O for the complete […] A water. After centrifugation of samples at 2500 rpm (700 × g) for 5 min, the release of haemoglobin was monitored by measuring the absorbance (A sample) of the supernatant at 540 nm using BMG Labtech PolarStar Omega multimode reader. The percentage of haemolysis was calculated according to the equation: %haemolysis=Asample-Ablank∕Awater-Ablank×100

in vitro = conditions: human, 50% human plasma (pooled, sodium heparin) in PBS, pH 7.4
[1] = system: Multi-drug-resistant S. pneumoniae ATCC 700677; test: microbe, parasite or virus in culture
How it was run: (§1)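 Overnight cultures in MHB were diluted 40-fold and regrown 2–3 h at 37 °C, then exposed to twofold compound dilutions (8 to 0.003 µg mL^−1) for 24 h at 37 °C. The lowest concentration without visible growth was recorded as the MIC.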

[2] = system: Vancomycin-intermediate S. aureus NRS1; test: microbe, parasite or virus in culture
How it was run: as §1

[3] = system: Vancomycin-resistant (VanA) Enterococcus faecium ATCC 51559; test: microbe, parasite or virus in culture
How it was run: as §1

[4] = 37 °C, 20 µM
[5] = system: Bacillus subtilis ATCC 6633; test: microbe, parasite or virus in culture; format: cell-based; conditions: for Ac2Kaa concentration required to neutralise MIC activity / MIC: ATCC 6633, 48 h
Procedure: All compounds were dissolved in H2O. Bacillus subtilis ATCC® 6633™ NRS-231 was cultured in MHB at 37 °C for 48 h. A sample of each culture was then diluted 40-fold in fresh MHB and incubated at 37 °C for 18 h. Compounds were added to each row of 96-well NBS plates (NBS, Corning 3641), in duplicate. The tripeptide N,N΄-diacetyl-L-Lys-D-Ala-D-Ala was serially diluted twofold across the compound-containing wells from 6400 to 3 µg mL^−1. To this the resultant mid-log phase cultures were diluted to the final concentration of 5 × 10^5 CFU mL^−1, then added to wells of the compound-containing plates. All the plates were covered and incubated at 37 °C for 24 h.

Cytotoxicity MTT assay [6] = format: cell-based, human; conditions: human
Procedure: (§2) Compound cytotoxicity was evaluated against HepG2 (ATCC-®HB-8065 liver hepatoceullular carcinoma) and HEK293 (ATCC®CRL-1573, embryonic kidney) human cell lines using standard (3-(4,5-dimethylthiazol-2-yl)−2,5-diphenyltetrazolium bromide (MTT) assay protocol with slight changes. In brief, HepG2 and HEK293 cells (assessed annually for mycoplasma contamination) were seeded as 1.5 × 10^4 cells per well in a clear 96-well tissue culture treated plate in a final volume of 100 μL in Dulbecco’s Modified Eagle Medium (DMEM)(GIBCO-Invitrogen #11995-073), in which 1% of FBS was added. Cells were incubated for 24 h at 37 °C, 5% CO2 to allow cells to attach to the plates. Compounds prepared at 100 µM to 0.046 µM in threefold dilutions were added into each well and incubated for 24 h at 37 °C, 5% CO2. After the incubation, 0.4 mg mL^−1 MTT (3-(4,5-dimethylthiazol-2-yl)−2,5-diphenyltetrazolium bromide) (Invitrogen) was added to each well. The plates were then incubated for 2 h at 37 °C, 5% CO2. The media was removed, and purple formazan crystals were resuspended in 60 μL of DMSO. The absorbance was read at 570 nm using a Polarstar Omega plate reader. The data was then analysed by Prism software. Results are presented as the average percentage of control ± S.D. for each set of duplicate wells using the following equation: percent viability = (ABSTEST – ABSPOSITIVE CTRL / ABSUNTREATED –ABS POSITIVE CTRL)×100.

[7] = system: Methicillin-resistant S. aureus ATCC 43300; test: microbe, parasite or virus in culture
How it was run: as §1

Cytotoxicity MTT assay [8] = format: cell-based, human; conditions: human; remark: listed apart in the source
Procedure: as §2, with “Compounds prepared at 100 µM to 0.046 µM in threefold dilutions were added into each well and incubated for 24 h at 37 °C, 5% CO2.” left out

MRSA = MRSA in 50% human serum / 50% MHB
Procedure: The compounds, along with standard antibiotics were serially diluted twofold across the wells of 96-well non-binding surface (NBS) polystyrene plates (Corning 3641). […] Standards ranged from 64 to 0.03 µg mL^−1 and compounds from 8 to 0.003 µg mL^−1 with final assay volumes of 100 µL per well. Gram-positive bacteria were cultured in Mueller Hinton broth (MHB) (Bactolaboratories, Cat. no. 211443) at 37 °C overnight. A sample of each culture was then diluted 40-fold in fresh MHB and incubated at 37 °C for 2–3 h. […] All the plates were covered and incubated at 37 °C for 24 h. MICs were the lowest concentration showing no visible growth.
The compounds, along with standard antibiotics, tested in BMD-MIC assay as above, in the presence of a mixture of 50% human serum (Sigma-Aldrich) and 50% MHB.

Compound | remaining at 1 h, 20 µM (in vitro) [%] | remaining at 6 h, 20 µM (in vitro) [%] | remaining at 24 h, 20 µM (in vitro) [%] | MIC MDR S.P. ([1]; ATCC 700677) [µg/mL] | MIC VISA ([2]; Vancomycin-intermediate NRS1) [µg/mL] | MIC VRE ([3]; ATCC 51559) [µg/mL] | % compound remaining after incubation in 50% human plasma, 0h [4] [%] | Ac2Kaa concentration required to neutralise MIC activity [5] [µg/mL] | MIC [5] [µg/mL] | CC50 at 24 h (Cytotoxicity MTT assay [6]) [µM] | MIC MRSA ([7]; ATCC 43300, 24 h) [µg/mL] | CC50 at 24 h (Cytotoxicity MTT assay [8]) [µM] | MIC +50% HS (MRSA) | further results
CCCCCCCCCCCCCC(=O)NCC(=O)N[C@@H](CO)C(=O)N[C@@H](CCCCN)C(=O)N[C@@H](CCCCN)C(=O)N[C@@H](CCCCN)C(=O)N[C@@H](CSSCCNC(=O)[C@H]1NC(=O)[C@H]2NC(=O)[C@H](NC(=O)[C@@H]3NC(=O)[C@H](CC(N)=O)NC(=O)[C@H](NC(=O)[C@@H](CC(C)C)NC)[C@H](O)c4ccc(c(Cl)c4)Oc4cc3cc(c4O[C@@H]3O[C@H](CO)[C@@H](O)[C@H](O)[C@H]3O[C@H]3C[C@](C)(N)[C@H](O)[C@H](C)O3)Oc3ccc(cc3Cl)[C@H]2O)c2ccc(O)c(c2)-c2c(O)cc(O)cc21)C(=O)O [Compound 14] | 119 | 82 | 18 | <0.003 | <0.003 | 0.09 (≈ 0.038 µM) | 100 | > 3200 | ≤ 0.004 | 11 | <0.003 | 4 | – | hemolysis at 3 h (Haemolysis assay; 100 µg mL-1): 0.4%; hemolysis at 3 h (Haemolysis assay; 1600 µg mL-1): 6.4%
POB2K-K-Dap-K(Vancomycin)-NHMe [Compound 27] | – | – | – | – | – | – | – | – | – | – | – | – | 0.25 µg/mL and 0.375 µg/mL | –
CCCCCCCCCCC(=O)N[C@@H](CCCCNC(=O)[C@H]1NC(=O)[C@H]2NC(=O)[C@H](NC(=O)[C@@H]3NC(=O)[C@H](CC(N)=O)NC(=O)[C@H](NC(=O)[C@@H](CC(C)C)NC)[C@H](O)c4ccc(c(Cl)c4)Oc4cc3cc(c4O[C@@H]3O[C@H](CO)[C@@H](O)[C@H](O)[C@H]3O[C@H]3C[C@](C)(N)[C@H](O)[C@H](C)O3)Oc3ccc(cc3Cl)[C@H]2O)c2ccc(O)c(c2)-c2c(O)cc(O)cc21)C(=O)O [Compound 20, nC10CO-K(Vancomycin)-OH] | 101 | 100 | 89 | 0.19 (≈ 0.109 µM) | 1.5 (≈ 0.859 µM) | >8 | 100 | 12.5 | 0.03 (≈ 0.0172 µM) | > 500 | 0.125 (≈ 0.0716 µM) | > 500 | – | remaining at 3 h, 20 µM (in vitro): 101%; Molar excess of Ac2Kaa ligand required to antagonise antibacterial activity ([5]; [ligand]/[antibiotic], B. subtilis ATCC 6633, 24 h): 663
CCCCCCCCCCCCCC(=O)NCC(=O)N[C@@H](CO)C(=O)N[C@@H](CO)C(=O)N[C@@H](CCCCN)C(=O)N[C@@H](CO)C(=O)N1CCC[C@H]1C(=O)N[C@@H](CO)C(=O)N[C@@H](CCCCN)C(=O)N[C@@H](CCCCN)C(=O)N[C@@H](CCCCN)C(=O)N[C@@H](CCCCN)C(=O)N[C@@H](CCCCN)C(=O)N[C@@H](CCCCN)C(=O)N1CCC[C@H]1C(=O)NCC(=O)N[C@@H](CC(=O)O)C(=O)N[C@@H](CSSCCNC(=O)[C@H]1NC(=O)[C@H]2NC(=O)[C@H](NC(=O)[C@@H]3NC(=O)[C@H](CC(N)=O)NC(=O)[C@H](NC(=O)[C@@H](CC(C)C)NC)[C@H](O)c4ccc(c(Cl)c4)Oc4cc3cc(c4O[C@@H]3O[C@H](CO)[C@@H](O)[C@H](O)[C@H]3O[C@H]3C[C@](C)(N)[C@H](O)[C@H](C)O3)Oc3ccc(cc3Cl)[C@H]2O)c2ccc(O)c(c2)-c2c(O)cc(O)cc21)C(N)=O [Compound 8] | – | – | – | – | – | – | – | – | – | – | – | – | >8 µg/mL | MIC MDR S.P. ([1]; S. pneumoniae ATCC 700677): 0.5 µg/mL (≈ 0.143 µM); MIC VISA ([2]; S. aureus NRS1): 4 µg/mL (≈ 1.14 µM); MIC VRE ([3]; E. faecium MDR VanA ATCC 51559, substance alone): 0.125 µg/mL (≈ 0.0357 µM); CC50 at 24 h (Cytotoxicity MTT assay [6]; 24 h, MTT, 1% FBS, read-out: Cytotoxicity CC50 HEK293): 22 µM; MIC MRSA ([7]; S. aureus ATCC 43300, NBS plates, MHB, 24 h, substance alone): 0.5 µg/mL (≈ 0.143 µM); CC50 at 24 h (Cytotoxicity MTT assay [8]; 24 h, MTT, 1% FBS, read-out: Cytotoxicity CC50 HepG2): 10 µM
